We go through two compounds from patent publication US20090105562A1, “SYSTEM AND METHODS FOR SCREENING OR ANALYZING TARGETS” (TAIPEI VETERANS GENERAL HOSPITAL, priority 2007, published 2009).

Assay [1] concerns NSCs. Briefly: Triple-staining immunofluorescent assay of NSC differentiation into serotoninergic neurons. The format is cell-based, rat. The protocol:
All animals used were treated in accordance with the Animal Care and Use Committee guideline at Taipei Veterans General Hospital. The protocol of the present study was also approved by the committee. Adult Sprague-Dawley (SD) rats (8 weeks old, 250 g) were anesthetized with intraperitoneal phenobarbital (Sigma, USA), and the location of their brains was mapped. Then, the brain was surgically separated from the hippocampus region. In brief, tissues from the hippocampus of adult rats were dissociated and incubated in Hank's balanced salt solution (HBSS) containing collagenase (78 units/ml) and hyaluronidase (38 units/ml) for 10 minutes at 37° C. The tissues were then mechanically dissected and placed in a trypsin solution (1.33 mg/ml) at 37° C. for another 10 minutes. Dissociated cells were then centrifuged at […] for 5 minutes. Then the enzyme solution was removed and replaced with serum-free culture media composed of Dulbecco Modified Eagle Medium (DMEM) and F-12 nutrient mixture (1:1) including insulin (25 μg/mL), transferrin (100 μg/mL), progesterone (20 nM), putrescine (60 μM), sodium selenite (30 nM), human recombinant epidermal growth factor (EGF) 20 ng/mL, and fibroblast growth factor-basic (bFGF) (20 ng/mL) (R&D Systems, Minneapolis, Minn., USA). Viable cells were counted by trypan blue exclusion and plated as 5000 cells/200 μL per well in 96-well plates (Corning Inc, Acton, Mass., USA) with no substrate pretreatment. The IM was purchased from Sigma Chem. Co., St Louis, Mo., USA. The 0.1% dimethyl sulfoxide (DMSO) (Sigma Chem. Co., St Louis, Mo., USA) was used as a vehicle control in all procedures and studies. For differentiation protocol, the neurosphere NSCs were plated on poly-L-ornithine-coated (15 μg/mL) glass coverslips in individual wells of 24-well plates (1.0 mL/well) in DMEM/F-12 medium containing 2% fetal calf serum (FCS) (Gibcol-BRL, Gaitherburg, Md., USA) and withdrawing EGF and bFGF At the time of NSCs seeding, vehicle control or IM treatment was concurrently added.
An avidin-biotin complex method was used for the immunohistochemical staining in the differentiated NSCs. Following washes with the 3% hydrogen peroxide, sodium azide and antigens were retrieved using a microwave. […] Immunoreactive signals were detected with a mixture of biotinylated rabbit anti-mouse IgG and Fluoresave (Calbiochem, La Jolla, Calif., USA) under confocal microscopy (Olympus, FV300). Each individual sample was analyzed in triplicate. […] The percentage of TUNEL-positive cells was measured by the average of 6 different areas as compared to the total cell number in the same section slide (under a×200 power field of a light microscope).

The test system of assay [2] is NSCs. Briefly: 5-HT in culture medium of NSCs by microdialysis with HPLC-ECD. It counts as cell-based, rat. The following applies: p<0.05. The protocol: A microdialysis sampling system connected to the Petri dish was constructed in our laboratory according to the design originally described by Cheng et al., J. Chromatogr. A. 870, 405-411, 2000. The dialysis probe was made of a dialysis membrane 30 mm in length, with an outer diameter of 150 μm, and a nominal molecular weight cut-off of 13000. Ringer solution ([…]) was perfused through the probe at a flow-rate of 2 μl/min. Microdialysate samples were collected every 10 minutes. An HPLC-ED system (HTEC-500; Eicom, Kyoto, Japan) consisting of a three-electrode cell with an Ag/AgCl electrode as the reference electrode, a counter electrode and a graphite electrode as the working electrode was used to measure determine the levels of serotonin (5-HT). […] The column used for separation at room temperature (25° C.) was a PP-ODS (4.6×30 mm) (Eicom, Kyoto, Japan). The mobile phase, containing 0.1 M sodium phosphate buffer (0.1 M NaH2PO4: 0.1 M Na2HPO4=1000:160, v/v), 1% methanol, 500 mg/l sodium secanesulfonate and 50 mg/l EDTA, was adjusted to pH 6.0 with 5 M of NaOH with a flow rate of 0.5 ml/min. A volume of 10 μl of each microdialysate was injected manually into the chromatographic system and assayed on the same sampling day.

The mark [3] stands for this setting: Day 7 culture of IM-treated vs non IM-treated NSCs, p<0.05.
[4] abbreviates: agent added, Day 7 culture of IM-treated NSCs.

Regarding `CN(C)CCCN1c2ccccc2CCc2ccccc21` [IM, imipramine], in the assay with NSCs [1] (setting [3]), the “percentage of MAP-2-positive cells” value is “significantly increased” and the “percentage of serotonin (5-HT)-positive cells” value is “significantly increased”. For the same compound, the “5-HT level in culture medium” value in the assay on NSCs [2] (Day 7 and Day 14, IM-treated vs without IM-treatment NSCs) is “significantly higher”.
As to `N#CC(=C(/N)Sc1ccccc1N)/C(C#N)=C(\N)Sc1ccccc1N` [U0126], in the assay with NSCs [1] (setting [4]), the “percentage of MAP-2-positive cells in IM-treated NSCs” value is listed as “significantly decrease” and the “percentage of serotonin (5-HT)-positive cells in IM-treated NSCs” value is listed as “significantly decrease”. Further, the “production of 5-HT of IM-treated NSCs” value in the assay on NSCs [2] (agent added, Day 7 and Day 14) is on record as “significantly diminished”.
